Reference: ChEMBL document CHEMBL1201862, “PubChem BioAssay data set” (2004)
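Test compounds were applied to cells in 96-well plates for 48 hours at 5 doses. GI50 marks 50% less growth.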 Calls of active or inactive are those of the source. No stated cut-off is given here; in the data, active = GI50 up to about 1.1 µM and inactive = higher.

System: BT-549
Assay: growth of human tumour cells (NCI), 48 h

Compound: CC(N/N=C(\S)N1CCCC1)c1cccnn1 (centres undefined)
- GI50: 0.433 µM (active)

Compound: O=C1OC(C(O)C(O)C(O)CO)C(O)C1O (centres undefined)
- GI50: > 100 µM (inactive)

Compound: O=C(O)c1ccc([N+](=O)[O-])c(P(=O)(O)O)c1
- GI50: > 100 µM (inactive)

Compound: Cc1ccc(/C(O)=C/c2nc3ccccc3oc2=O)cc1
- GI50: 44.4 µM (inactive)

Compound: CC1=Nn2c(nc3sc4c(c3c2=O)CCCC4)SC1
- GI50: 31.5 µM (inactive)

Compound: Cc1ccc(S(=O)(=O)Oc2cc(S(=O)(=O)O)cc3cc(S(=O)(=O)O)cc(N)c23)cc1
- GI50: > 100 µM (inactive)

Compound: O=c1[nH]c(N/N=C\C(O)C(O)C(O)CO)nc2ccccc12 (centres undefined)
- GI50: > 100 µM (inactive)

Compound: CCOC1SC(SC)=NN1C(=O)C(OC(C)=O)C(OC(C)=O)C(OC(C)=O)C(OC(C)=O)C(=O)N1N=C(SC)SC1OCC (centres undefined)
- GI50: > 100 µM (inactive)

Compound: COc1cc2c(cc1OC)-c1c(oc3cc(OC4OC(CO)C(O)C(O)C4O)c(OC)cc3c1=O)C(O)O2 (centres undefined)
- GI50: > 100 µM (inactive)

Compound: Cc1ccc(/N=C2\C(=N/c3ccc(C)cc3)N(c3ccc(C)cc3)C(=S)N2C(=O)c2ccccc2)cc1
- GI50: > 100 µM (inactive)

Compound: C[C@]12CC[C@H](O)CC1=CC[C@@H]1C2CC[C@]2(C)c3nn(-c4ccc(F)cc4)nc3CC12 (some centres undefined)
- GI50: 63.4 µM (inactive)

Compound: COC(=O)C1SC[C@H]2C(=O)N(c3ccccc3)C(=O)N12 (some centres undefined)
- GI50: > 100 µM (inactive)

Compound: COc1ccc2c(=O)c3cc([N+](=O)[O-])ccc3n(C)c2c1
- GI50: > 100 µM (inactive)

Compound: C(=N\N=C1NCCN1)/c1ccc2ccccc2c1
- GI50: 5.53 µM (inactive)

Compound: O=C(ON=C1c2ccccc2C(Br)C(Br)c2ccccc21)c1ccccc1 (centres undefined)
- GI50: 19.6 µM (inactive)

Compound: Cc1cc(=O)[nH]c2cc(NC(=O)C(CCCNC(=N)N)NC(=O)OCc3ccccc3)ccc12 (centres undefined)
- GI50: > 100 µM (inactive)

Compound: Cc1ccc(-c2c(C#N)c(-c3ccc(N(C)C)cc3)c(C#N)c(=O)n2NS(=O)(=O)c2ccccc2)cc1
- GI50: 37.2 µM (inactive)

Compound: CC/C(Cl)=N\OC(=O)Nc1ccc(F)c([N+](=O)[O-])c1
- GI50: 16.7 µM (inactive)

Compound: O=C1CC(C(O)C(O)C(O)CO)CC(=O)N1 (centres undefined)
- GI50: 74 µM (inactive)

Compound: O=C(Cc1ccc(OCc2cccc(Cl)c2)cc1)NO
- GI50: 26.2 µM (inactive)

Compound: COC(=O)C1(Cc2ccccc2)Cc2cc3c(cc2C1O)CCC3 (centres undefined)
- GI50: 15.5 µM (inactive)

Compound: Cc1cccc2c1C/C(=C\c1cccc(C)c1C(=O)O)C2=O
- GI50: > 100 µM (inactive)

Compound: O=C1c2ccccc2C(=O)c2c1ccc1nc3c(nc21)-c1c2ccccc2cc2cccc-3c12
- GI50: 80.2 µM (inactive)

Compound: O=C(c1ccccc1)N(C(=O)c1ccccc1)c1nc(SCc2ccccc2)ns1
- GI50: 28.8 µM (inactive)

Compound: Cc1ccc(SCC(CF)OC(C)n2cnc3c(Cl)nc(N)nc32)cc1 (centres undefined)
- GI50: 16 µM (inactive)

Compound: C[N+]12CCCCC1C(CN1C(=O)Cc3c4ccccc4c(c4ccccc34)CC1=O)CCC2 (centres undefined)
- GI50: > 100 µM (inactive)

Compound: COc1ccc(-c2nc3ncccn3c2-c2ccc([S+](C)[O-])cc2)cc1 (centres undefined)
- GI50: > 100 µM (inactive)

Compound: CC1(C)CCCCCCCCCC(C)(CCCO)C1=O (centres undefined)
- GI50: 17.7 µM (inactive)

Compound: CCC/C(Cl)=N\OC(=O)Nc1ccc(Br)cc1
- GI50: 17.7 µM (inactive)

Compound: NC(Cc1c[nH]c2cc([N+](=O)[O-])ccc12)C(=O)O (centres undefined)
- GI50: > 100 µM (inactive)

Compound: CC1=NN(c2ccccc2)C(=O)C1/N=N/c1ccc([As](=O)(O)O)c(O)c1 (centres undefined)
- GI50: > 100 µM (inactive)

Compound: Cc1ccc(-c2cc(O)c3nc4ccccc4n3c2)cc1
- GI50: > 100 µM (inactive)

Compound: COc1cc2c(cc1OCCCC(=O)Nc1cc(C(=O)Nc3cc(C(=O)NCCCN(C)C)n(C)n3)n(C)n1)N=CC1CCCN1C2=O (centres undefined)
- GI50: 12.1 µM (inactive)

Compound: O=C1N/C(=N/N=C/c2ccccc2)N/C1=C\c1cccs1
- GI50: 15.2 µM (inactive)

Compound: O=C(c1ccc(/N=C/c2ccccc2O)cc1)c1ccc(/N=C/c2ccccc2O)cc1
- GI50: > 100 µM (inactive)

Compound: CC(/C=N/N(C)C1=NCCCN1)=N/N(C)C1=NCCCN1
- GI50: > 100 µM (inactive)

Compound: O=C1C(C(c2ccc([N+](=O)[O-])cc2)N2CCOCC2)=C(O)C(c2ccccc2)N1c1ccccc1 (centres undefined)
- GI50: > 10 µM (inactive)

Compound: CC(=O)OCC12C(OC(C)=O)C(=O)C3C(OC(C)=O)C14OC3(C)COC(=O)c1cccnc1C(C)C(C)C(=O)OC(C(OC(C)=O)C2OC(C)=O)C4(C)O (centres undefined)
- GI50: > 100 µM (inactive)

Compound: Nc1nc(=O)c2c([nH]1)NCC(CCNc1ccc(C(=O)O)cc1)N2 (centres undefined)
- GI50: > 100 µM (inactive)
